Legend:
[1] = biological target: Receptor-interacting serine/threonine-protein kinase 4 (Homo sapiens) (UniProt P57078); conditions: Compound concentration 1000.0 nM
[2] = tested on: Epidermal growth factor receptor (Homo sapiens), P00533 [T790M]; conditions: Compound concentration 1000.0 nM
[3] = biological target: T1, Tyrosine-protein kinase JAK3 (Homo sapiens) (UniProt P52333); conditions: Compound concentration 1000.0 nM
T1 sequence (whole entry): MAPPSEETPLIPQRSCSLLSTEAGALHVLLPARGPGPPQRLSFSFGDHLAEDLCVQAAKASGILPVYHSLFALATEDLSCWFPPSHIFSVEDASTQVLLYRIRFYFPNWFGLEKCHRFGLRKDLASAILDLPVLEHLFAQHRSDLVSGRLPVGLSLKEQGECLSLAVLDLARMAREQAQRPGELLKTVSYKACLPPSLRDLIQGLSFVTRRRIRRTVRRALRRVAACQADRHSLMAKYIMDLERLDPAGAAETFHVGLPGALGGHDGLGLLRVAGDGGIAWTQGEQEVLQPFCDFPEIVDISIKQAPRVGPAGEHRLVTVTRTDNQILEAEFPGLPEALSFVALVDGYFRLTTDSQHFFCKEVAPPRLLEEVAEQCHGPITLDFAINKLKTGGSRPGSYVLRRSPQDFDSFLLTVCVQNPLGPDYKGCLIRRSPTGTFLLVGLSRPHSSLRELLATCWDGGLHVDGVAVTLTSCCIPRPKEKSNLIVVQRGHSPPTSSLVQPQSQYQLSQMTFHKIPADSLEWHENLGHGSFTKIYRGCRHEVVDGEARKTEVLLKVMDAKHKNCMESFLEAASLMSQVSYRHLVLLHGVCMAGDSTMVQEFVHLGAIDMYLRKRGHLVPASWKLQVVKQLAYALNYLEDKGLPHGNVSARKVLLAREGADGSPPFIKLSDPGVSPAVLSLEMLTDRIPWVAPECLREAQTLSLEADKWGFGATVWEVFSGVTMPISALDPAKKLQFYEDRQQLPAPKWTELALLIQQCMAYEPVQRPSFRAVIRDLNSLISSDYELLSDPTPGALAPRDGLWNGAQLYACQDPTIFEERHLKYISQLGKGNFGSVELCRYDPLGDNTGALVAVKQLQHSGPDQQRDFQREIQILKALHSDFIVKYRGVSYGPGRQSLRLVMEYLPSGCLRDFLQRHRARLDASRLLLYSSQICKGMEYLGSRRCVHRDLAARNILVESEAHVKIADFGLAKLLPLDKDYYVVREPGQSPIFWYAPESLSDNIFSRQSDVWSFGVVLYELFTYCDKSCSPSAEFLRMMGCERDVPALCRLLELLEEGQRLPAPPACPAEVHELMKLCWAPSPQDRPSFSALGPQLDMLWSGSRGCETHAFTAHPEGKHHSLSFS

[4] = biological target: 5-hydroxytryptamine receptor 3A (Homo sapiens) (UniProt P46098); conditions: Compound concentration 10.0 uM
[5] = tested on: Epidermal growth factor receptor (Homo sapiens), P00533 [G719C]; conditions: Compound concentration 1000.0 nM
[6] = biological target: Serine/threonine-protein kinase mTOR (Homo sapiens) (UniProt P42345); conditions: Compound concentration 1000.0 nM
[7] = biological target: Ribosomal protein S6 kinase alpha-3 (Homo sapiens, UniProt P51812); conditions: Compound concentration 1000.0 nM
[8] = tested on: Fibroblast growth factor receptor 3 (Homo sapiens), P22607 [G697C]; conditions: Compound concentration 1000.0 nM
[9] = biological target: Ribosomal protein S6 kinase alpha-4 (Homo sapiens) (UniProt O75676); conditions: Compound concentration 1000.0 nM
[10] = biological target: Non-receptor tyrosine-protein kinase TYK2 (Homo sapiens) (UniProt P29597); conditions: Compound concentration 1000.0 nM
[11] = biological target: Dual specificity mitogen-activated protein kinase kinase 5 (Homo sapiens) (UniProt Q13163); conditions: Compound concentration 1000.0 nM
[12] = biological target: Hepatocyte growth factor receptor (Homo sapiens) (UniProt P08581); conditions: Compound concentration 1000.0 nM
[13] = biological target: Serine/threonine-protein kinase 32A (Homo sapiens) (UniProt Q8WU08); conditions: Compound concentration 1000.0 nM
[14] = biological target: T2, Serine/threonine-protein kinase Nek11 (Homo sapiens) (UniProt Q8NG66); conditions: Compound concentration 1000.0 nM
T2 sequence (whole entry): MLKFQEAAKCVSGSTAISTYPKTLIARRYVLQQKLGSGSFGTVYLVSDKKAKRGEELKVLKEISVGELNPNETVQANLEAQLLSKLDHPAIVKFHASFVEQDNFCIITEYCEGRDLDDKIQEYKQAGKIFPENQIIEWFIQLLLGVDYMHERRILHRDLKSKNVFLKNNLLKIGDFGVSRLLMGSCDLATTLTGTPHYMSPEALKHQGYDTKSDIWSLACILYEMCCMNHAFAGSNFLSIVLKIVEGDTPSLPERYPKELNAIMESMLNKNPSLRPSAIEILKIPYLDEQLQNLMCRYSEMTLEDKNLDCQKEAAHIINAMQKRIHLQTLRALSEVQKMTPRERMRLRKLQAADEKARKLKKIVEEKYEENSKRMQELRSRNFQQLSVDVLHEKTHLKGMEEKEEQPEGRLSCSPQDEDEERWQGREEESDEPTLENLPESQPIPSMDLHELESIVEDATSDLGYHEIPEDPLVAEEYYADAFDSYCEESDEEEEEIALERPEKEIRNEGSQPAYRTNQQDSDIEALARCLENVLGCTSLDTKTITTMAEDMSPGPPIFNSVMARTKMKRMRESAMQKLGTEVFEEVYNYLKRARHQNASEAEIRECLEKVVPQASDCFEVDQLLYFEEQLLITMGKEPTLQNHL

[15] = biological target: Tyrosine-protein kinase Srms (Homo sapiens) (UniProt Q9H3Y6); conditions: Compound concentration 1000.0 nM

Chain of Receptor-interacting serine/threonine-protein kinase 4 (Homo sapiens) (P57078 whole entry): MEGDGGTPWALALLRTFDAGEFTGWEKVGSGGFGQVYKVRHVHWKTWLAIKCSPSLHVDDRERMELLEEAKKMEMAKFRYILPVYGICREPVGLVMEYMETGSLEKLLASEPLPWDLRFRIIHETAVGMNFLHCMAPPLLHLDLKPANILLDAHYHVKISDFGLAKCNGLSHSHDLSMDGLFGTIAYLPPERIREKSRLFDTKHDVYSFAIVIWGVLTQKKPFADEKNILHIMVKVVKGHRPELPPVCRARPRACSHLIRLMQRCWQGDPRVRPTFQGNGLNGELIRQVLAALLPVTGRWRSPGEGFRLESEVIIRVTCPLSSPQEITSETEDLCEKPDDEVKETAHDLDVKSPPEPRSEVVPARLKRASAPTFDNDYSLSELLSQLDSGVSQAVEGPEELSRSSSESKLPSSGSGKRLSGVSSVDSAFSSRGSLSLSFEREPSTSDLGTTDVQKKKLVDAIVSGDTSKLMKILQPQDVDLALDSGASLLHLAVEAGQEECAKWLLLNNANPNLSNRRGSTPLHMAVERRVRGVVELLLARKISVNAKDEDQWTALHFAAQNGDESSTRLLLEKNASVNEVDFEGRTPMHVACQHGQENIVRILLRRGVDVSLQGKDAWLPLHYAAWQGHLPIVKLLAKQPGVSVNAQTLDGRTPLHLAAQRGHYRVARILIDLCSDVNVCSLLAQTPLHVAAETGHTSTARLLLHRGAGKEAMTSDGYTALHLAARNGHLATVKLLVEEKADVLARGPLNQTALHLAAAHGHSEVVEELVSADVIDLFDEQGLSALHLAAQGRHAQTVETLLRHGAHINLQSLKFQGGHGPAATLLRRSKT
Chain of Dual specificity mitogen-activated protein kinase kinase 5 (Homo sapiens) (Q13163 whole entry): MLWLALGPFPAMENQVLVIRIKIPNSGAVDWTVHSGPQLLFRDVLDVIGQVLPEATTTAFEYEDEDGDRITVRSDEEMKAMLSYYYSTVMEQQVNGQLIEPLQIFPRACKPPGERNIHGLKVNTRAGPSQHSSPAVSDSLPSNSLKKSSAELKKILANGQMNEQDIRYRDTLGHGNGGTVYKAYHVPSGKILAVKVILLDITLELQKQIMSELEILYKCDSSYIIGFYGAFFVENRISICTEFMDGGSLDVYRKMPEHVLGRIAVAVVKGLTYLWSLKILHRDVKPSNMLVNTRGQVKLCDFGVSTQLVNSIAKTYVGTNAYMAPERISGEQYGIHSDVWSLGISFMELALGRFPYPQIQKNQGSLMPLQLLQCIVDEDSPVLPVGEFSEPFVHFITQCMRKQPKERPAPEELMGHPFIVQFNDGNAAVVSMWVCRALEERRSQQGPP
Chain of Fibroblast growth factor receptor 3 (Homo sapiens), P22607 [G697C] (P22607 whole entry G697C): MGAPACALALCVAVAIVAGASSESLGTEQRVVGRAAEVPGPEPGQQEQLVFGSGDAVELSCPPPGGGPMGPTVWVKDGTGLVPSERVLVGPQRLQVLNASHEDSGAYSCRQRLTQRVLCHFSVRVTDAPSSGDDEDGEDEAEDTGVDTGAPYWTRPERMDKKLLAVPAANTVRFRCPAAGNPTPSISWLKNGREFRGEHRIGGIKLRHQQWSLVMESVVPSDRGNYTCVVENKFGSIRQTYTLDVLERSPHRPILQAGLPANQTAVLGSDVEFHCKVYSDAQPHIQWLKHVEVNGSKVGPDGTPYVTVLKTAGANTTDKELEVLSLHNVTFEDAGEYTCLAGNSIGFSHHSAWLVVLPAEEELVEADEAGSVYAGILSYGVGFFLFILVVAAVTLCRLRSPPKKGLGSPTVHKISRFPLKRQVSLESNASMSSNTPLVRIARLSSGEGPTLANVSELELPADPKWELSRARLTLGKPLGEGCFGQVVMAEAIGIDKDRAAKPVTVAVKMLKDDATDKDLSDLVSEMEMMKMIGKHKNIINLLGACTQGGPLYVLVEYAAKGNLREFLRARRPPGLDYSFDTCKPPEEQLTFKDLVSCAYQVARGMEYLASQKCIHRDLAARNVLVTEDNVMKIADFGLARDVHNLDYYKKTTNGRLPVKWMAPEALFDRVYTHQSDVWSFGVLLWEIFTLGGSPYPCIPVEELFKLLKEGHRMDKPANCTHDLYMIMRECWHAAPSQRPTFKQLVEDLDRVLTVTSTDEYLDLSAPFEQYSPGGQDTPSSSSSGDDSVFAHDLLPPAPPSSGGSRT
Chain of 5-hydroxytryptamine receptor 3A (Homo sapiens) (P46098 whole entry): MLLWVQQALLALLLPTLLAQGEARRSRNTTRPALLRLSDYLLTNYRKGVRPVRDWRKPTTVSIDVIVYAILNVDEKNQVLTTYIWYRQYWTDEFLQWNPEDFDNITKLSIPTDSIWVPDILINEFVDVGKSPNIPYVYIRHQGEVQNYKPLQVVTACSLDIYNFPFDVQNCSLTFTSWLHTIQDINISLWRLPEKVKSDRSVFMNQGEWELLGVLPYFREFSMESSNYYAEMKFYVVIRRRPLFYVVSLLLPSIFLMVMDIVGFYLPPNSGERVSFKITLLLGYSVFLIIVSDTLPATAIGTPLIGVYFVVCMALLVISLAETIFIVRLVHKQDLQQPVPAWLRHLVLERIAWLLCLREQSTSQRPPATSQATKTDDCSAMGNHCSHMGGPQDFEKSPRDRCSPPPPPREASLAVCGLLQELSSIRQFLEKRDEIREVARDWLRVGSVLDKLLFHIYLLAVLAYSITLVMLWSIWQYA
Chain of Non-receptor tyrosine-protein kinase TYK2 (Homo sapiens) (P29597 whole entry): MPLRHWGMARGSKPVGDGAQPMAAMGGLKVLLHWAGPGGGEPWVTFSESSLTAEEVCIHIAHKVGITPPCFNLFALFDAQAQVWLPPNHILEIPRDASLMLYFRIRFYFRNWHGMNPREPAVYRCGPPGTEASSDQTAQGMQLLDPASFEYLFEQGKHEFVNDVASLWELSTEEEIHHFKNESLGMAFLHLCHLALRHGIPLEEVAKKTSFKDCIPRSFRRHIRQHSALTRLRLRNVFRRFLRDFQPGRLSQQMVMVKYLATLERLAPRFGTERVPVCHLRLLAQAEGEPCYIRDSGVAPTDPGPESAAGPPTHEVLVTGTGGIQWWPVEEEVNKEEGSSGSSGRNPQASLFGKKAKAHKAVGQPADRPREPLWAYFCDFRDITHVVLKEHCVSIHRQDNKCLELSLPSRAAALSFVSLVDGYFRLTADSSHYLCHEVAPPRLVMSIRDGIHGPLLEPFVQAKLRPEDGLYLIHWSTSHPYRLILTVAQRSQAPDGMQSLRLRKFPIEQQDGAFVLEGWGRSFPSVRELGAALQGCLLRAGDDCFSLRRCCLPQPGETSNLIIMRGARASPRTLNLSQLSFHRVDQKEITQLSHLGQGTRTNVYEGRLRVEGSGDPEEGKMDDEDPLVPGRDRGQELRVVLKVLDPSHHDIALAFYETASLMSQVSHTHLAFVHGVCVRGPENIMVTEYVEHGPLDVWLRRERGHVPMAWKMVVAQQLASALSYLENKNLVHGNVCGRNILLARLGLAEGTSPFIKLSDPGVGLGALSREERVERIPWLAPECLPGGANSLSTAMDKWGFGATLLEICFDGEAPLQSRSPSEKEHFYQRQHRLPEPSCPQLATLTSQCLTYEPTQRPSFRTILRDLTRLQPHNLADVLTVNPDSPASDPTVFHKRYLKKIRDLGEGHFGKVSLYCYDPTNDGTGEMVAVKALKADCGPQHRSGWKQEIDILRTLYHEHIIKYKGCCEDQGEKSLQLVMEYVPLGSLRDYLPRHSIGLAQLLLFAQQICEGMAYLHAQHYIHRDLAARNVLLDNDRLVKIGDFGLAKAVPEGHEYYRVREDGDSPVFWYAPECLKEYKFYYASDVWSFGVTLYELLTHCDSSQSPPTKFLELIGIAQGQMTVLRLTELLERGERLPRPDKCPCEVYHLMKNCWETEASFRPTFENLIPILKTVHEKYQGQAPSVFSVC
Chain of Ribosomal protein S6 kinase alpha-4 (Homo sapiens) (O75676 whole entry, looked up): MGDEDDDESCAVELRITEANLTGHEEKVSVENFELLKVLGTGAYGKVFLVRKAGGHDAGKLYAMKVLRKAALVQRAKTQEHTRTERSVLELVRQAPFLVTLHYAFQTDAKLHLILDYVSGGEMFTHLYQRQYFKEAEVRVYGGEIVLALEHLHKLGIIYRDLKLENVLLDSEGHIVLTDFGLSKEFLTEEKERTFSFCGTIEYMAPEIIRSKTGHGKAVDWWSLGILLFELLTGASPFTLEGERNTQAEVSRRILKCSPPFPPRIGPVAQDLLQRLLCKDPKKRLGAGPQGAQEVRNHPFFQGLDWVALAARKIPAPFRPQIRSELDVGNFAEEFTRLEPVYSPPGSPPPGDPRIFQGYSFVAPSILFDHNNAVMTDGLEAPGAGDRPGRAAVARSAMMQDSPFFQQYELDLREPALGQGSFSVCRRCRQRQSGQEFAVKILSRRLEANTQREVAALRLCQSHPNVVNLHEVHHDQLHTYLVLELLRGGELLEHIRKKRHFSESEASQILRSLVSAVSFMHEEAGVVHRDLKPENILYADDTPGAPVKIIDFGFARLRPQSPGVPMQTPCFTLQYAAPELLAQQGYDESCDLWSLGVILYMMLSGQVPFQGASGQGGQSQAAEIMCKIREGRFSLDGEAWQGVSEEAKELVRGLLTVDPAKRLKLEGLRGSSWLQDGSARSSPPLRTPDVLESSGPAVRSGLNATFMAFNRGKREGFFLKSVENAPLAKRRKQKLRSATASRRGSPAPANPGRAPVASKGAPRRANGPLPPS
Chain of Serine/threonine-protein kinase 32A (Homo sapiens) (Q8WU08 whole entry): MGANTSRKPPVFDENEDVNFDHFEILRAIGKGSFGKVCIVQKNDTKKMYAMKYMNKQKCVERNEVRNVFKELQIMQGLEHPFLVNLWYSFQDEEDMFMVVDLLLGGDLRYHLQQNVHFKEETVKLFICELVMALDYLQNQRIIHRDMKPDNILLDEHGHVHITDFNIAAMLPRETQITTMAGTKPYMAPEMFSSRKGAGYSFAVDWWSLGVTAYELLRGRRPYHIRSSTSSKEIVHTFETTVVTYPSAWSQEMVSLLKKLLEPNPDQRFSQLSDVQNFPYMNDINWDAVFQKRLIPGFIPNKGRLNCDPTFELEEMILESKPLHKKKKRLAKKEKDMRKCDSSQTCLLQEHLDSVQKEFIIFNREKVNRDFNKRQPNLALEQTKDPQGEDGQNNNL

Row | SMILES | residual activity [1] [%] | residual activity [2] [%] | residual activity [3] [%] | inhibition [4] [%] | residual activity [5] [%] | residual activity [6] [%] | residual activity [7] [%] | residual activity [8] [%] | residual activity [9] [%] | residual activity [10] [%] | residual activity [11] [%] | residual activity [12] [%] | residual activity [13] [%] | residual activity [14] [%] | residual activity [15] [%]
1 | CCc1ccccc1C(=O)Nc1n[nH]c2c(C)c(F)c(C3C(C#N)=C(C)N(C)C(C)=C3C#N)cc12 [BAY-3827] | 92 | 100 | 79 | 2.79 | 55 | 100 | 0.3 | 74 | 100 | 100 | 100 | 7.3 | 100 | 100 | 94
2 | CC1=C(C#N)C(c2ccc3c(c2)c(NC(=O)c2ccccc2C)nn3C)C(C#N)=C(C)N1 [BAY-974] | 78 | 100 | 83 | 9.93 | 83 | 75 | 86 | 93 | 89 | 82 | 79 | 24 | 95 | 96 | 57

Source: ChEMBL document CHEMBL4507319 (2021)
